Legend:
[1] = tested on: intracellular NO in SH-SY5Y cells; test: 6-OHDA-induced NO production (DAF-FM diacetate); type: cell-based, Human
Procedure: Intracellular NO was evaluated by using the fluorescent probe 4-amino-5-methylamino-2′,7′-difluorofluoresecin diacetate (DAF-FM diacetate), which is cell-permeant and diffuses passively across cellular membranes. Once inside the cells, DAF-FM diacetate is deacetylated by intracellular esterases to DAF-FM. DAF-FM is essentially non-fluorescent until DAF-FM reacts with NO. Thus, it can be used to quantify intracellular NO production. The cells were seeded in 96-well, black bottom-clear plates. […] The cells were then washed twice in PBS and the fluorescence was evaluated in a multi-label counter at an excitation wavelength of 495 nm and an emission wavelength of 515 nm. The increase in fluorescence for each treatment was calculated as the relative fluorescence of each treatment compared with the untreated control cells.
(§1) Augmented NO production subsequent to iNOS induction appears to play an important role in the initial phase of 6-OHDA-induced neuro-damage models in vitro and in vivo (Singh, Das et al. 2005; Lin, Uang et al. 2007; Shih, Chen et al. 2011). […] Expression of the total iNOS proteins were determined by Western blot analysis. […] Results of FIGS. 4A-C are expressed as a percentage of relative fluorescent intensity (RFI) of the Control group. ###P<0.005 versus control group; *p<0.05, **p<0.01 and *** p<0.005 versus 6-OHDA group.

iNOS = iNOS expression, Western blot; type: cell-based, Human
Procedure: After treatment, SH-SY5Y cells were washed three times with PBS and then lysis with RIPA lysis buffer containing 1% PMSF and 1% Protease Inhibitor Cocktail and incubated for 30 min on ice. Cell lysates were centrifuged at 12,500 g for 20 min at 4° C. The supernatant was separated and the amount of protein was determined using the BCA protein assay kit (Thermo Scientific Pierce, USA). Protein samples (30 μg) were separated by SDS-PAGE (10% (w/v)) polyacrylamide gel and then transferred to a polyvinylidene difluoride (PVDF) membrane (Bio-Rad, Hercules, Calif.). Subsequently, the membrane was blocked with 5% (v/v) non-fat milk in PBST (PBS containing 0.1% Tween 20) for 1 h at room temperature. The blots were incubated overnight at 4° C. with primary antibodies. […] Quantitative assessment of protein bands was done with Gel Doc™ XRS equipped with Quantity One software.
as §1, with “6-OHDA group. […]” for “6-OHDA group.”

zebrafish larvae = type: in vivo; conditions: 2.5-10 μM with 250 μM 6-OHDA, 4 days, 10 min session
Procedure: The wild type zebrafish was used for this study.
Zebrafish behaviour was analyzed using a digital video tracking system (Viewpoint ZebraLab system). The system consists of a digital video camera connected to a computer system running the analysis software ZebraLab Man Rev 3.6B.
Moreover, 6-OHDA treatment also markedly altered the swimming behavior of zebrafish. […] Values in FIG. 9 represent the mean±SEM of 12 fish larvae per group of 3-time independent experiments. ###P<0.005 versus control group; *p<0.05, **p<0.01 and *** p<0.005 versus 6-OHDA group. […] The total swimming distance in 10 min travelled by the zebrafish larvae was decreased after exposure to 6-OHDA.

[2] = 60 μM 12 h, then 400 μM 6-OHDA 2 h

COc1cc2c(c(OC)c1OC)-c1c(cc3c(c1OC)OCO3)C[C@H](C)[C@](C)(O)[C@H]2OC(=O)c1ccccc1 [SchiA, Schisantherin A]
6-OHDA-induced increase in DAF-FM fluorescence (NO) [1, 2]: inhibited such increase in DAF-FM fluorescence | DAF-FM fluorescence intensity, compound alone ([1]; 60 μM, without 6-OHDA): no effect | 6-OHDA-induced iNOS expression (iNOS; [2]): reduced the expression of iNOS induced by 6-OHDA significantly | iNOS expression, compound alone (iNOS; 60 μM, without 6-OHDA): no obvious influence | 6-OHDA-induced reduction of total distance of movement (zebrafish larvae): inhibited 6-OHDA-induced reduction of total distance of movement by zebrafish in a dose dependent manner
